Patent publication US20240181121A1, “A WOUND CARE PRODUCT COMPRISING AN ANTIMICROBIAL COATING” (Mölnlycke Health Care AB, priority 2021, published 2024)

How the values were obtained:
[1] = tested on: Candida albicans ATCC 10231; assay: Minimum bactericidal concentration (MBC) in solution, simulated wound fluid; assay type: cell-based; details: for MBC: Candida albicans, simulated wound fluid, 48 h
Protocol: (§1) Test organisms: P. aeruginosa ATCC 9027 (bacteria), S. aureus ATCC 6538 (bacteria), C. albicans ATCC 10231 (fungi), P. aeruginosa ATCC PAO1 (bacteria, example 1b).
(§2) Test time: 24 h for bacteria and 48 h for fungi
(§3) Start inoculum: 1×10^6 CFU/ml for bacteria, 4×10^6 CFU/ml for fungi.
(§4) Tests were performed in solution to compare the potency of silver sulfate, chlorhexidine phosphate and chlorhexidine gluconate, using simulated wound fluid, SWF (fetal bovine serum (FBS) and Peptone Water (PW) mixed in equal proportions, which correspond to the protein and electrolyte concentration of wound exudates (Emiko Aiba-Kojima, M D et. al Wound Rep Reg (2007) 15 511-520; Trengove, N et al Wound Rep Reg (1996) 4 1067-1927)) as test medium. The aim was to define the lowest concentration of an antimicrobial agent required to kill the specific microorganism. The test microorganisms were suspended in SWF, in which antimicrobial substances were added at different concentration before subculture in well microtiter plates.

[2] = tested on: P. aeruginosa (ATCC 9027); assay: as above; assay type: cell-based
Protocol: as §1, §2, §3, §4

S. aureus ATCC 6538 = assay: as above; assay type: cell-based
Protocol: as §1, §2, §3, §4

[3] = tested on: Pseudomonas aeruginosa PAO1 biofilms; assay: Reduction of biofilm counts in contact with CHP solution (collagen matrix, SWF); assay type: cell-based; details: for Log count / Log reduction: biofilm, 24 h
Protocol: Tests were performed in solution to evaluate the potency of chlorhexidine phosphate (CHP) against biofilms cultured on a collagen matrix, using SWF as test medium. The aim was to define if concentrations of CHP that can be spray coated on the surface of the silicone contact layer would have an impact on the biofilms. The test microorganism was Pseudomonas aeruginosa PAO1, suspended in a SWF solution, and placed on a collagen matrix in wells of 24-well plates. The well plates were incubated at 37° C., 95% relative humidity for 24 h to induce formation of biofilms. After incubation and formation of biofilms, the antimicrobial substance CHP was added on top of biofilms at different concentrations in triplicates and were incubated for another 24 h at 37° C., 95% relative humidity. […] The number of viable counts were determined by plating on PetriFilms.

[4] = tested on: all microorganism (same microorganisms as used in Example 1a); assay: Antimicrobial effect of coating sprayed on silicone wound contact layer; assay type: cell-based, S. aureus, P. aeruginosa, C. albicans; details: sterilized, 2 ml SWF
Protocol: The prototypes were punched into disks of 7 cm^2 and placed in a well in contact with 2 ml SWF containing a solution of microorganism in suspension (same microorganisms as used in Example 1a). The wound contact layer used in the tests comprised a polyurethane film coated with 200 gsm of a silicone adhesive.
Microorganism growth was evaluated on the silicone layer; i.e. the skin facing surface, and in suspension in the liquid.

[5] = Rate of dissolution of antimicrobial coating in water, LC-MS; assay type: physicochemical; details: 2 ml water; sterilized coated wound contact layer
Protocol: The comparison was made between prototypes spray coated with an antimicrobial solution of chlorhexidine phosphate (0.56% by weight) and prototypes spray coated with an antimicrobial solution of chlorhexidine acetate (0.68% by weight). The spray coating was performed with the same parameters and on the same equipment, as described with respect to Example 1 and 2 hereinbefore. After spraying, the samples were sent to sterilization on production site to undergo typical sterilization cycle required for antimicrobial products. […] Triplicates of silicone coated films (wound contact layers) and release liners were separated and placed in wells in contact with 2 ml solution of water during 3 hours, then removed and placed in a new well for 24 hours in order to evaluate instant (>3 h) and short (>24 h) term dissolution. After calibration of the equipment against the solutions of interest, the concentration of CHP and CHAc in the different wells was evaluated by Liquid chromatography-mass spectrometry in order to quantify the amount of antimicrobial coating that was able to dissolve instantly or shortly.

Staphylococcus aureus = details: prototype coated with 75 μg/cm^2; sterilized; 2 ml SWF
Protocol: as §1, §2, §3

In the case of N=C(NCCCCCCNC(=N)NC(=N)Nc1ccc(Cl)cc1)NC(=N)Nc1ccc(Cl)cc1 [CHP, chlorhexidine phosphate], the MBC ([1]; ATCC10231) is reported as 26 µM, the “times more silver than chlorhexidine phosphate required to kill Candida albicans” value ([1]; ratio silver vs chlorhexidine phosphate) is reported as “up to 190 times” and the MBC ([2]; Pseudomonas aeruginosa, ATCC9027, 24 h) is reported as 26 µM. The MBC (S. aureus ATCC 6538; Staphylococcus aureus, ATCC6538, 24 h) was 7 µM, the Log count ([3]; CHP 37 uM (sample 1)) was 4.4 and the Log reduction ([3]; CHP 37 uM (sample 1)) was 5.5. For the same molecule, the Log count ([3]; CHP 75 uM (sample 2)) was 3.9, the Log reduction ([3]; CHP 75 uM (sample 2)) was 6.1 and the Log count ([3]; CHP 150 uM (sample 3)) was 4.1. For the same molecule, the Log reduction ([3]; CHP 150 uM (sample 3)) was 5.9, the “log reduction of biofilms vs FDA requirement” value ([3]; CHP solutions of 37 μM, 75 μM, 150 μM) was over 4 and the “elimination of microorganism on the silicone surface and in the solution” value ([4]; prototype sprayed at 45 μg/cm^2) was “full elimination”. The “elimination of microorganism on the silicone surface and in the solution” value ([4]; prototype sprayed at 75 μg/cm^2) was “full elimination”, the “Instant dissolution % Released from silicone after 3 h” value [5] was 100% and the “Total released in 24 h” value [5] was 100%.
Work on O=S(=O)([O-])[O-].[Ag+].[Ag+] [Silver sulfate, silver sulfate] yielded an MBC [1] of 5000 µM, an MBC ([2]; 24 h) of 160 µM and an MBC (S. aureus ATCC 6538; 24 h) of 310 µM. For the same molecule, the “log reduction from inoculum size” value (Staphylococcus aureus) was under 4 log.
Work on N=C(NCCCCCCNC(=N)NC(=N)Nc1ccc(Cl)cc1)NC(=N)Nc1ccc(Cl)cc1.O=C(O)[C@H](O)[C@@H](O)[C@H](O)[C@H](O)CO.O=C(O)[C@H](O)[C@@H](O)[C@H](O)[C@H](O)CO [CHG, chlorhexidine gluconate] yielded an MBC [1] of 60 µM, an MBC ([2]; 24 h) of 520 µM and an MBC (S. aureus ATCC 6538; 24 h) of 30 µM.
With CC(=O)O.CC(=O)O.NC(=N\CCCCCC/N=C(N)/N=C(\N)Nc1ccc(Cl)cc1)/N=C(\N)Nc1ccc(Cl)cc1 [CHAc, chlorhexidine acetate, reference compound] the “Instant dissolution % Released from silicone after 3 h” value [5] was 28% and the “Short time dissolution Additional % released from silicone after additional 21 h” value [5] was 11%.
